# Assay results published in BindingDB's records for patent US11708326 (Chemocentryx, 2023).
# Molecular target: Programmed cell death 1 ligand 1 (Homo sapiens, UniProt Q9NZQ7)
# Assay: Enzyme-Linked Immunosorbent Assay ELISA
# Procedure: 96 Well plates were coated with 1 μg/mL of human PD-L1 (obtained from R&D) in PBS overnight at 4° C. The wells were then blocked with 2% BSA in PBS (W/V) with 0.05% TWEEN-20 for 1 hour at 37° C. The plates were washed 3 times with PBS/0.05% TWEEN-20 and the compounds were serial diluted (1:5) in dilution medium and added to the ELISA plates. Human PD-1 and biotin 0.3 μg/mL (ACRO Biosystems) were added and incubated for 1 hour at 37° C. then washed 3 times with PBS/0.05% TWEEN-20. A second block was performed with 2% BSA in PBS (W/V)/0.05% TWEEN-20 for 10 min at 37° C. and was washed 3 times with PBS/0.05% TWEEN-20. Streptavidin-HRP was added for 1 hour at 37° C. then washed 3 times with PBS/0.05% TWEEN-20. TMB substrate was added and reacted for 20 min at 37° C. A stop solution (2 N aqueous H2SO4) was added. The absorbance was read at 450 nm using a micro-plate spectrophotometer.
# Programmed cell death 1 ligand 1, sequence (Q9NZQ7 whole entry): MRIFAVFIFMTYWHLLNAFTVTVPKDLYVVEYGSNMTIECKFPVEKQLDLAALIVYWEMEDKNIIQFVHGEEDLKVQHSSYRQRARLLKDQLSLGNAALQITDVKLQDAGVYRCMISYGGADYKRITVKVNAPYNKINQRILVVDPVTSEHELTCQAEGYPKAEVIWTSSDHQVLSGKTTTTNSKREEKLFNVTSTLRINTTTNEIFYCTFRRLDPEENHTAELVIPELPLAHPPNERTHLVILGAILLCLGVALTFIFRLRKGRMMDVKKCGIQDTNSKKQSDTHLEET
row,Compound,IC50
1,"Cc1c(OCCCN2CCC(F)(F)CC2)cccc1-c1cccc2c1CC[C@@H]2Oc1cc(OCc2cncc(C#N)c2)c(CN[C@H](C(=O)O)[C@@H](C)O)cc1Cl [US11708326, Compound TABLE 1.18]",in the range around 252 nM
2,"Cc1c(OCCCN2CC[C@@H](O)[C@H](F)C2)cccc1-c1cccc2c1CC[C@@H]2Oc1cc(OCc2cncc(C#N)c2)c(CN[C@H](C(=O)O)[C@@H](C)O)cc1Cl [US11708326, Compound TABLE 1.31]",in the range around 252 nM
3,"Cc1c(OCCCN2CC[C@H](O)[C@H](F)C2)cccc1-c1cccc2c1CC[C@@H]2Oc1cc(OCc2cncc(C#N)c2)c(CN[C@H](C(=O)O)[C@@H](C)O)cc1Cl [US11708326, Compound TABLE 1.34]",< 5 nM
4,"N#Cc1cncc(COc2cc(O[C@H]3CCc4c(-c5cccc(OCCCN6CC(F)C6)c5Cl)cccc43)c(Cl)cc2CN[C@@H]2CCCC[C@@H]2O)c1 [US11708326, Compound TABLE 1.92]",< 5 nM
5,"CCOc1cc(NC2CCc3c(-c4cccc(OCCCN5CCC(F)CC5)c4C)cccc32)c(Cl)cc1CN[C@@H](CO)C(=O)O (stereo not given in full) [US11708326, Compound TABLE 1.117]",in the range around 252 nM
6,"CC(CO)(NCc1cc(Cl)c(O[C@H]2CCc3c(-c4cccc(OCCCN5CCCCC5)c4Cl)cccc32)cc1OCc1cncc(C#N)c1)C(=O)O (stereo not given in full) [US11708326, Compound TABLE 1.130]",< 5 nM
7,"N#Cc1cncc(COc2cc(O[C@H]3CCc4c(-c5cccc(OCCCN6CC(O)C6)c5Cl)cccc43)c(Cl)cc2CN2CCCC3(C2)NC(=O)NC3=O)c1 (stereo not given in full) [US11708326, Compound TABLE 1.137]",< 5 nM
8,"N#Cc1cncc(COc2cc(O[C@H]3CCc4c(-c5cccc(OCCCN6CC7(CC(O)C7)C6)c5Cl)cccc43)c(Cl)cc2CNC[C@@H]2CCC(=O)N2)c1 [US11708326, Compound TABLE 1.164]",< 5 nM
9,"N#Cc1cncc(COc2cc(O[C@H]3CCc4c(-c5cccc(OCCCN6CC7(CC(O)C7)C6)c5Cl)cccc43)c(Cl)cc2CNC[C@H]2CCC(=O)N2)c1 [US11708326, Compound TABLE 1.165]",< 5 nM
10,"Cc1c(OCCCN2CCC(C)CC2)cccc1-c1cccc2c1CC[C@@H]2Oc1cc(OCc2cc(C#N)cc(C#N)c2)c(CN[C@H]2CCC(=O)NC2)cc1Cl [US11708326, Compound TABLE 1.296]",in the range around 252 nM
11,"Cc1c(OCCCN2[C@H](C)CCC[C@@H]2C)cccc1-c1cccc2c1CC[C@@H]2Oc1cc(OCc2cc(C#N)cc(C#N)c2)c(CN[C@H]2CCC(=O)NC2)cc1Cl [US11708326, Compound TABLE 1.298]",in the range around 252 nM
12,"Cc1c(OCCCN2C(C)CCC2C)cccc1-c1cccc2c1CC[C@@H]2Oc1cc(OCc2cc(C#N)cc(C#N)c2)c(CN[C@H]2CCC(=O)NC2)cc1Cl (stereo not given in full) [US11708326, Compound TABLE 1.304]",< 5 nM
13,"Cc1c(OCCCN2CCCC2C(C)C)cccc1-c1cccc2c1CC[C@@H]2Oc1cc(OCc2cc(C#N)cc(C#N)c2)c(CN[C@H]2CCC(=O)NC2)cc1Cl (stereo not given in full) [US11708326, Compound TABLE 1.305]",in the range around 252 nM
14,"Cc1c(OCCCN2CCCC[C@@H]2C)cccc1-c1cccc2c1CC[C@@H]2Oc1cc(OCc2cc(C#N)cc(C#N)c2)c(CN[C@H]2CCC(=O)NC2)cc1Cl [US11708326, Compound TABLE 1.315]",< 5 nM
15,"Cc1c(OCCCN2CCC2(C)C)cccc1-c1cccc2c1CC[C@@H]2Oc1cc(OCc2cc(C#N)cc(C#N)c2)c(CN[C@H]2CCC(=O)NC2)cc1Cl [US11708326, Compound TABLE 1.323]",< 5 nM
16,"Cc1c(OCCCN2[C@H](C)CC[C@@H]2C)cccc1-c1cccc2c1CC[C@@H]2Oc1cc(OCc2cc(C#N)cc(C#N)c2)c(CN[C@H]2CCC(=O)NC2)cc1Cl [US11708326, Compound TABLE 1.333]",< 5 nM
17,"Cc1c(OCCCN2[C@H](C)CC[C@H]2C)cccc1-c1cccc2c1CC[C@@H]2Oc1cc(OCc2cc(C#N)cc(C#N)c2)c(CN[C@H]2CCC(=O)NC2)cc1Cl [US11708326, Compound TABLE 1.334]",< 5 nM
18,"Cc1c(OCCCN2[C@@H](C)CC[C@@H]2C)cccc1-c1cccc2c1CC[C@@H]2Oc1cc(OCc2cc(C#N)cc(C#N)c2)c(CN[C@H]2CCC(=O)NC2)cc1Cl [US11708326, Compound TABLE 1.335]",< 5 nM
19,"CCOc1cc(O[C@H]2CCc3c(-c4cccc(OCCCN5CCC5(C)C)c4C)cccc32)c(Cl)cc1CN(C)CC(=O)O [US11708326, Compound TABLE 1.378]",in the range around 252 nM
20,"CCOc1cc(O[C@H]2CCc3c(-c4cccc(OCCCN5CCC5(C)C)c4C)cccc32)c(Cl)cc1CNCCC(=O)OC(C)C [US11708326, Compound TABLE 1.393]",in the range around 252 nM
